Measured values as given in patent US10703764B2, “Benzopiperazine compositions as BET bromodomain inhibitors” (FORMA Therapeutics, Inc., priority 2013, dated 2020).

Tests used:
BRD4 BD1 = target: T1, BRD4 BD1 (Homo sapiens, UniProt O60885); assay: AlphaScreen binding assay, BRD4 Bromodomain 1
T1 construct: made in house
Method in brief: (§1)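 An AlphaScreen competition format was used with His-BRD4 BD1 or BD2 and biotin-H4 K5/8/12/16-acetyl peptide, each at matched final levels of 50 nM (BD1) or 100 nM (BD2). Incubation in HEPES/NaCl buffer with 0.1% BSA and 0.01% Triton X-100 ran ≥1 h before IC50 determination.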

BRD4 BD2 = target: T2, BRD4 BD2 (Homo sapiens, UniProt O60885); assay: AlphaScreen binding assay, BRD4 Bromodomain 2
T2 construct: made in house
Method in brief: as §1

MV4-11 cells = assay: Oncology cell growth assay (3-day proliferation, CellTiter-Glo); assay type: cell-based; details: Homo sapiens, MV4-11, 72 h, AML cell line MV4-11, 72 hours, compounds grouped by IC50 range, read-out: MV4-11 IC50 (inhibition of proliferation, gIC50)
Method in brief: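 Luminescence from CellTiter-Glo served as the growth read-out after MV4-11 cells (3000/well) were cultured with compound for 72 hours. Final concentrations spanned 10 to 0.0045 μM in 3-fold steps. gIC50 values were derived by four-parameter logistic fitting relative to DMSO and cell-free controls.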

| Compound | IC50 (BRD4 BD1) [nM] | IC50 (BRD4 BD2) [nM] | IC50 (MV4-11 cells) [nM] |
| --- | --- | --- | --- |
| COCCn1cc(-c2ccc3c(c2)N(C(=O)OC(C)C)C[C@H](C)N3C(=O)OC)cn1 [Example I-323] | 100 to 1000 | 50 to 500 | 100 to 500 |
| COC(=O)N1c2ccc(-c3cnn(CCO)c3)cc2N(C(=O)OC(C)C)C[C@@H]1C [Example I-324] | 100 to 1000 | 50 to 500 | 100 to 500 |
| COC(=O)N1c2ccc(-c3cnn(CC4CC4)c3)cc2N(C(=O)OC(C)C)C[C@@H]1C [Example I-325] | 100 to 1000 | 50 to 500 | > 500 |
| CC(=O)N1c2ccc(-c3cnn(CC(C)(C)O)c3)cc2N(C(=O)OC(C)C)C[C@@H]1C [Example I-327] | 100 to 1000 | 50 to 500 | 100 to 500 |
| COC(=O)N1c2ccc(-c3cnn(CC(C)(C)O)c3)cc2N(C(=O)OC(C)C)C[C@@H]1C [Example I-329] | 100 to 1000 | 50 to 500 | 100 to 500 |
| CC(=O)N1c2ccc(-c3cnn(C(C)(C)C)c3)cc2N(C(=O)OC(C)C)C[C@@H]1C [Example I-330] | 100 to 1000 | 50 to 500 | 100 to 500 |
| COC(=O)N1c2ccc(-c3cnn(C(C)(C)C)c3)cc2N(C(=O)OC(C)C)C[C@@H]1C [Example I-332] | 100 to 1000 | > 500 | > 500 |
| CC(=O)N1c2ccc(-c3cn(C)nc3C)cc2N(C(=O)OC(C)C)C[C@@H]1C [Example I-338] | 100 to 1000 | 50 to 500 | > 500 |
| CC(=O)N1c2ccc(-c3ccc(NS(C)(=O)=O)cc3)cc2N(C(=O)OC(C)C)C[C@@H]1C [Example I-345] | 100 to 1000 | 50 to 500 | 100 to 500 |
| CC(=O)N1c2ccc(-c3ccc(N(C)S(C)(=O)=O)cc3)cc2N(C(=O)OC(C)C)C[C@@H]1C [Example I-346] | 100 to 1000 | 50 to 500 | 100 to 500 |
| CC(=O)N1c2ccc(-c3ccc4c(c3)CCN4S(C)(=O)=O)cc2N(C(=O)OC(C)C)C[C@@H]1C [Example I-348] | 100 to 1000 | < 50 | 100 to 500 |
| CC(=O)N1c2ccc(-c3ccc(NS(C)(=O)=O)cc3)cc2N(C(=O)C2CC2)C[C@@H]1C [Example I-349] | 100 to 1000 | 50 to 500 | 100 to 500 |
| CC(=O)N1c2ccc(-c3ccc(NS(=O)(=O)C4CC4)cc3)cc2N(C(=O)C2CC2)C[C@@H]1C [Example I-351] | 100 to 1000 | 50 to 500 | 100 to 500 |
| CC(=O)N1c2ccc(-c3ccc4c(c3)CCN4S(C)(=O)=O)cc2N(C(=O)C2CC2)C[C@@H]1C [Example I-352] | < 100 | < 50 | < 100 |
| CC(=O)N1c2ccc(-c3cnn(C4CCNCC4)c3)cc2N(C(=O)OC(C)C)C[C@@H]1C [Example I-353] | 100 to 1000 | 50 to 500 | 100 to 500 |
| COC(=O)N1c2ccc(-c3cnn(C4CCNCC4)c3)cc2N(C(=O)OC(C)C)C[C@@H]1C [Example I-355] | 100 to 1000 | 50 to 500 | 100 to 500 |
| CC(=O)N1c2ccc(-c3cnn(C4CNC4)c3)cc2N(C(=O)C2CC2)C[C@@H]1C [Example I-360] | < 100 | < 50 | 100 to 500 |

| Compound | IC50 (BRD4 BD1) [nM] | IC50 (BRD4 BD2) [nM] | IC50 (MV4-11 cells) [nM] |
| --- | --- | --- | --- |
| CCOC(=O)N1C[C@H](C)N(C(=O)C2CC2)c2ccc(-c3cnn(C4CC4)c3)cc21 [Example I-379] | 100 to 1000 | 50 to 500 | 100 to 500 |
| CC(=O)N1c2ccc(-c3ccc4nccn4c3)cc2N(C(=O)c2ccco2)C[C@@H]1C [Example I-382] | 1000 to 10000 | > 500 | 100 to 500 |
| CC(=O)N1c2ccc(-c3cn(C)cn3)cc2N(C(=O)c2ccco2)C[C@@H]1C [Example I-401] | 1000 to 10000 | < 50 | 100 to 500 |
| CC(=O)N1c2ccc(-c3ccc(S(C)(=O)=O)cn3)cc2N(C(=O)c2ccco2)C[C@@H]1C [Example I-407] | 1000 to 10000 | < 50 | > 500 |
| CC(=O)N1c2ccc(-c3cnn(Cc4ccccc4)c3)cc2N(C(=O)c2ccco2)C[C@@H]1C [Example I-409] | 100 to 1000 | < 50 | < 100 |
| CC(=O)N1c2ccc(-c3cn(S(=O)(=O)N(C)C)cn3)cc2N(C(=O)c2ccco2)C[C@@H]1C [Example I-410] | 100 to 1000 | < 50 | 100 to 500 |
| CC(=O)N1c2ccc(-c3cnc(N)cn3)cc2N(C(=O)c2ccco2)C[C@@H]1C [Example I-413] | 1000 to 10000 | < 50 | 100 to 500 |
| COC(=O)Nc1ccc(-c2ccc3c(c2)N(C(=O)c2ccco2)C[C@H](C)N3C(C)=O)cc1 [Example I-414] | 1000 to 10000 | < 50 | 100 to 500 |
| CC(=O)N1c2ccc(-c3ccc(C4(O)COC4)cc3)cc2N(C(=O)c2ccco2)C[C@@H]1C [Example I-415] | 100 to 1000 | < 50 | 100 to 500 |
| CC(=O)N1c2ccc(-c3ccc(N4CCS(=O)(=O)CC4)cc3)cc2N(C(=O)c2ccco2)C[C@@H]1C [Example I-417] | 100 to 1000 | < 50 | < 100 |
| CC(=O)N1c2ccc(-c3cn(C)nn3)cc2N(C(=O)c2ccco2)C[C@@H]1C [Example I-420] | 1000 to 10000 | 50 to 500 | > 500 |
| CC(=O)N1c2ccc(-c3ccc(C(=O)N4CCNCC4)cc3)cc2N(C(=O)c2ccco2)C[C@@H]1C [Example I-422] | 100 to 1000 | < 50 | 100 to 500 |
| CC(=O)N1c2ccc(-c3ccc(S(=O)(=O)CCN)cc3)cc2N(C(=O)c2ccco2)C[C@@H]1C [Example I-425] | 100 to 1000 | < 50 | 100 to 500 |
| CC(=O)N1c2ccc(-c3ccc(C(=O)NCCN)cc3)cc2N(C(=O)c2ccco2)C[C@@H]1C [Example I-426] | 1000 to 10000 | < 50 | 100 to 500 |
| CC(=O)N1c2ccc(-c3ccc(CN4CCCS4(=O)=O)cc3)cc2N(C(=O)c2ccco2)C[C@@H]1C [Example I-427] | 100 to 1000 | < 50 | 100 to 500 |
| CC(=O)N1c2ccc(-c3ccc(OCCC#N)cc3)cc2N(C(=O)c2ccco2)C[C@@H]1C [Example I-428] | 100 to 1000 | 50 to 500 | 100 to 500 |

More lines, now with the values ahead:

| IC50 (BRD4 BD1) [nM] | IC50 (BRD4 BD2) [nM] | IC50 (MV4-11 cells) [nM] | Compound |
| --- | --- | --- | --- |
| 100 to 1000 | 50 to 500 | > 500 | COC(=O)N1c2ccc(-c3cnn(C4COC4)c3)cc2N(C(=O)OC(C)C)C[C@@H]1C [Example I-326] |
| 100 to 1000 | 50 to 500 | 100 to 500 | CC(C)OC(=O)N1C[C@H](C)N(C(=O)C2CC2)c2ccc(-c3cnn(CC(C)(C)O)c3)cc21 [Example I-328] |
| 100 to 1000 | > 500 | > 500 | CC(C)OC(=O)N1C[C@H](C)N(C(=O)C2CC2)c2ccc(-c3cnn(C(C)(C)C)c3)cc21 [Example I-331] |
| 100 to 1000 | 50 to 500 | > 500 | CC(=O)N1c2ccc(-c3cnn(C(F)F)c3)cc2N(C(=O)OC(C)C)C[C@@H]1C [Example I-336] |
| 100 to 1000 | > 500 | > 500 | CC(=O)N1c2ccc(-c3c[nH]nc3C)cc2N(C(=O)OC(C)C)CC1C (stereo not drawn) [Example I-337] |
| < 100 | < 50 | < 100 | CC(=O)N1c2ccc(-c3ccc(NS(=O)(=O)C4CC4)cc3)cc2N(C(=O)OC(C)C)C[C@@H]1C [Example I-347] |
| 1000 to 10000 | 50 to 500 | 100 to 500 | CC(=O)N1c2ccc(-c3ccc(N(C)S(C)(=O)=O)cc3)cc2N(C(=O)C2CC2)C[C@@H]1C [Example I-350] |
| 100 to 1000 | 50 to 500 | 100 to 500 | CC(C)OC(=O)N1C[C@H](C)N(C(=O)C2CC2)c2ccc(-c3cnn(C4CCNCC4)c3)cc21 [Example I-354] |
| 100 to 1000 | < 50 | 100 to 500 | CC(=O)N1c2ccc(-c3cnn(C4CNC4)c3)cc2N(C(=O)OC(C)C)C[C@@H]1C [Example I-356] |
| 1000 to 10000 | < 50 | 100 to 500 | CC(=O)N1c2ccc(-c3cnn(C4CCNCC4)c3)cc2N(C(=O)C2CC2)C[C@@H]1C [Example I-359] |
| 100 to 1000 | < 50 | 100 to 500 | C[C@H]1CN(C(=O)c2ccco2)c2cc(-c3ccc(S(C)(=O)=O)cc3)ccc2N1C(=O)C1CC1 [Example I-364] |
| 1000 to 10000 | < 50 | > 500 | CCC(=O)N1c2ccc(-c3ccc(S(C)(=O)=O)cc3)cc2N(C(=O)c2ccco2)C[C@@H]1C [Example I-365] |
| 100 to 1000 | 50 to 500 | 100 to 500 | C[C@H]1CN(C(=O)C2CC2)c2cc(-c3cnn(C4CC4)c3)ccc2N1C(=O)C1CC1 [Example I-377] |
| 100 to 1000 | 50 to 500 | 100 to 500 | CC(C)OC(=O)N1C[C@H](C)N(C(=O)C2CC2)c2ccc(-c3cnn(C4CC4)c3)cc21 [Example I-378] |
| 100 to 1000 | 50 to 500 | 100 to 500 | CC(=O)N1c2ccc(-c3ccc4nccn4n3)cc2N(C(=O)c2ccco2)C[C@@H]1C [Example I-398] |
| 1000 to 10000 | < 50 | 100 to 500 | CC(=O)N1c2ccc(-c3ccc(-c4ncco4)cc3)cc2N(C(=O)c2ccco2)C[C@@H]1C [Example I-412] |
| 1000 to 10000 | 50 to 500 | 100 to 500 | CC(=O)N1c2ccc(-c3ccc(S(=O)(=O)CCO)cc3)cc2N(C(=O)c2ccco2)C[C@@H]1C [Example I-423] |
